Experiments:
DHS = molecular target: T1, DHS (Homo sapiens, UniProt P49366); assay: in vitro hypusination reaction of recombinant eIF5A with DHS, DHH, spermidine and GC7, immunoblot read-out; type: biochemical
T1 construct: His6 (N); made in house; host or cells: E. coli
T1 sequence (P49366 1-369): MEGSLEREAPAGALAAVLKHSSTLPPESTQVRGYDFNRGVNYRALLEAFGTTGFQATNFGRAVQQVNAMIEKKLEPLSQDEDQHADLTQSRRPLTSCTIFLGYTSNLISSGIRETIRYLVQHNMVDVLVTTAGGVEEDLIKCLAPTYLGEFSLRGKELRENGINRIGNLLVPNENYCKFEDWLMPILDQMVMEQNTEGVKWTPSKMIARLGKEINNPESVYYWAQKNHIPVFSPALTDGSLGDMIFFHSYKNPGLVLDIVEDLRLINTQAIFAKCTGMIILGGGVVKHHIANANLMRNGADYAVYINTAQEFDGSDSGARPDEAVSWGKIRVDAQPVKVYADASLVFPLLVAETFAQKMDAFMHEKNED
Description: Reactions in vitro—For in vitro experiments, eIF5A protein was purified from E. coli as a GST fusion, after which the GST tag was proteolytically removed. DHS protein was purified from E. coli as an N-terminal His6 fusion. Purified human DHH protein was purchased from OriGene. The hypusination reactions in vitro proceeded as previously published.
(§1) Antibodies and immunoblotting—The rabbit polyclonal antibody IU-88 against hypusinated human eIF5A was generated in rabbits using the synthetic hypusine-containing peptide C-Ahx-STSKTG[hypusine]HGHAKV-amide (SEQ ID NO. 1) by contract to 21st Century Biochemicals. Monoclonal mouse pan-anti-eIF5A antibody was from BD Biosciences and anti-actin antibody was from MP Biomedicals. Immunoblot analysis was visualized using a LiCor Odyssey fluorescence system following electrophoresis on a 4-20% SDS polyacrylamide gel. Primary antibodies were diluted 1:1500 (IU-88) and 1:10,000 (anti-pan-eIF5A).
In order to determine if IU-88 specifically recognizes the deoxyhypusine or hypusine forms of eIF5A, immunoblots of reactions in which recombinant human eIF5A was incubated in vitro with DHS, DHH, spermidine, and/or the potent DHS inhibitor GC7 were performed. Referring now to FIG. 1A. […] Increasing the DHS concentration and time of incubation led to increasing eIF5A signal intensity in these studies (data not shown).

293T cells = assay: GC7 treatment of transfected 293T cells, immunoblot of cell extracts; type: cell-based, human
Protocol: (§2) Cell culture, transfection and DHS inhibition—Human 293T and rat INS-1(832/13) β cells were cultured as described. Cells were transiently transfected with plasmids encoding EGFP-eIF5A, EGFP-eIF5A(K50A) and EGFP-DHS constructs using Lipofectamine 2000 (Invitrogen) for 16 hours before cell extraction or immunofluorescence analysis. The DHS inhibitor GC7 (Biosearch Technologies) was prepared and used in cell culture as previously described.
as §1
Referring now to FIG. 1D. When 293T cells are transfected with GFP-eIF5A, a weak but detectable signal corresponding to GFP-eIF5A is observed using IU-88 (lane 1).

INS-1 β cells = assay: GC7 treatment of transfected INS-1 cells, immunoblot of cell extracts; type: cell-based, rat; settings: increasing GC7 concentrations, FIG. 1E
Protocol: as §2, §1
Referring now to FIG. 1E.

NCCCCCCCN=C(N)N [GC7]
eIF5A signal intensity (IU-88 immunoblot) (DHS; co-incubation with 300 nM GC7, FIG. 1A lanes 3 and 6): reduction in eIF5A signal intensity | inhibition of eIF5A signal intensity (IU-88 immunoblot) (DHS; higher concentrations of GC7 up to 10 μM, FIG. 1B): near-complete inhibition | GFP-eIF5A signal detected by IU-88 (293T cells; 293T cells co-transfected with GFP-DHS, GC7, FIG. 1D lanes 5 and 6): corresponding decrease in the presence of GC7 | GFP-eIF5A signal detected by IU-88 (293T cells; 293T cells transfected with GFP-eIF5A, increasing concentrations of GC7, FIG. 1D lanes 2 and 3): signal decreases further | endogenous eIF5A signal recognized by IU-88 (293T cells; 293T cells, increasing GC7): observed to decrease with increasing GC7 | GFP-eIF5A signal observed with IU-88 (INS-1 β cells): reduces the GFP-eIF5A signal observed with IU-88 | signal observed with the pan-anti-eIF5A antibody (INS-1 β cells): also reduces the signal observed with the pan-anti-eIF5A antibody
